# Measured values published in patent publication US20110152362A1, “METHODS OF TREATING EPILEPTOGENESIS AND EPILEPSY” (priority 2004, published 2011).
# Several values for one entry are separate records, joined by “and”; a condition that tells them apart may be missing. Equal values may be shown once.
# Columns and labels:
# [1] = test system: rats subjected to li-pilo SE; test: Example 2: quantification of cell densities 14 days after li-pilo SE;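 further: Thionine-stained 20 µm brain sections, neurons with cell bodies above 10 µm counted, value is the mean of 12 fields per structure from three adjacent sections, both sides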
# Protocol: All rats received lithium chloride (3 meq/kg, i.p., Sigma, St Louis, Mo., U.S.A.) and about 20 h later, all animals received also methylscopolamine bromide (1 mg/kg, s.c., Sigma) that was administered to limit the peripheral effects of the convulsant. […] The effects of increasing doses of TC were studied in 5 groups of rats. […] The control group received vehicle instead of pilocarpine and TC.
# For neuronal counting, animals were deeply anesthetized with 1.8 g/kg pentobarbital (Dolethal®, Vetoquinol, Lure, France). Brains were then removed and frozen. Serial 20 μm slices were cut in a cryostat, air-dried during several days before thionine staining. […] The grid of counting was placed on a well defined area of the cerebral structure of interest and counting was carried out with a microscopic enlargement of 200- or 400-fold defined for each single cerebral structure. Cell counts were performed twice on each side of three adjacent sections for each region by a single observer unaware of the animal's treatment. The number of cells obtained in the 12 counted fields in each cerebral structure was averaged. This procedure was used to minimize the potential errors that could result from double counting leading to overestimation of cell numbers. […] Counts involved only neurons with cell bodies larger than 10 μm. Cells with small cell bodies were considered as glial cells and were not counted.
# For neuronal damage and epileptogenesis, statistical analysis between groups was performed by means of a one-way analysis of variance followed by a post-hoc Dunnett or Fisher test using the Statistica software.
# [2] = test system: rats subjected to Li-pilo induced SE; test: Example 1: quantification of cell densities in hippocampus, thalamus and cortex after Li-pilo SE; assay type: in vivo, rat; settings: pilo-DZP rats
# Protocol: (§1) The effects of increasing doses of the Test Compound were studied on 3 groups of rats. The animals of the first group received 10 mg/kg of the test compound, i.p., 1 h after the onset of SE (pilo-TC10) while the animals of groups 2 and 3 received 30 and 60 mg/kg of the Test Compound (pilo-TC30 and pilo-TC60), respectively.
# (§2) The control group received saline instead of pilocarpine and the Test Compound (saline-saline). […] Pilo-DZP received a second injection of 1 mg/kg DZP on the day of SE at about 10 h after the first one. Thereafter, Pilo-DZP and saline-saline rats received twice daily an equivalent volume of saline.
# Quantification of cell densities was performed at 6 days after SE on 8 pilo-DZP, 8 pilo-TC10, 7 pilo-TC30, 7 pilo-TC60, and 6 saline-saline rats. […] Counts involved only cells larger than 10 μm, smaller ones being considered as glial cells.
# For the comparison of the characteristics of SE in pilo-saline and pilo-test compound animals, a non-paired Student's t-test was used. The comparison between the number of rats seizing in both groups was performed by means of a Chi square test. For neuronal damage, statistical analysis between groups was performed using ANOVA followed by a Fisher's test for multiple comparisons using the Statview software (Fisher R A, 1946a, Statistical Methods for Research Workers (10th edition) Oliver & Boyd, Edinburgh; Fisher R A, 1946b, The Design of Experiments (4th edition) Oliver & Boyd, Edinburgh)
# [3] = test system: rats subjected to li-pilo SE; test: Example 2: mortality over the first 48 h after Li-pilo SE; assay type: in vivo, rat; parameters: concentration or dose not given beside the values; settings: DZP
# [4] = test system: rats subjected to Li-pilo induced SE; test: Example 1: mortality induced by lithium-pilocarpine status epilepticus; assay type: in vivo, rat; settings: pilo-DZP, 2 mg/kg i.m. 1 h after onset of SE
# Protocol: (§3) The bilateral EEG cortical activity was recorded during the whole duration of SE and behavioral changes were noted.
# as §1, §2
# [5] = test system: rats subjected to Li-pilo induced SE; test: Example 1: Timm staining, mossy fiber sprouting in hippocampus; assay type: in vivo, rat; settings: pilo-DZP rats
# Protocol: At 2 months after the onset of spontaneous recurrent seizures, mossy fiber sprouting was examined on rats in the chronic period exposed to the test compound or DZP and in 3 saline-saline rats. Animals were deeply anaesthetized and perfused transcardially with saline followed by 100 ml of 1.15% (w/v) Na2S in 0.1 M phosphate buffer, and 100 ml of 4% (v/v) formaldehyde in 0.1 M phosphate buffer. Brains were removed from skull, post-fixed in 4% formaldehyde during 3-5 h and 40 μm sections were cut on a sliding vibratome and mounted on gelatin-coated slides.
# The following day, sections were developed in the dark in a 26° C. solution of 50% (w/v) arabic gum (160 ml), sodium citrate buffer (30 ml), 5.7% (w/v) hydroquinone (80 ml) and 10% (w/v) silver nitrate (2.5 ml) during 40-45 min. The sections were then rinsed with tap water at 40° C. during at least 45 min, rinsed rapidly with distilled water and allowed to dry. They were dehydrated in ethanol and coverslipped.
# Mossy fiber sprouting was evaluated according to criteria previously described in dorsal hippocampus (Cavazos et al., 1991, J Neurosci 11:2795-2803.), which are follows: 0—no granules between the tips and crest of the DG; 1—sparse granules in the supragranular region in a patchy distribution between the tips and crest of DG; 2—more numerous granules in a continuous distribution between the tips and crest of DG; 3—prominent granules in a continuous pattern between tips and crest, with occasional patches of confluent granules between tips and crest; 4—prominent granules that form a confluent dense laminar band between tips and crest and 5—confluent dense laminar band of granules that extends into the inner molecular layer.
# [6] = test system: rats subjected to Li-pilo induced SE; test: Example 1: latency to and frequency of spontaneous recurrent seizures (SRS), lithium-pilocarpine model; assay type: in vivo, rat
# Protocol: as §3, §1, §2
# The effects of the test compound on the EEG and on the latency to occurrence of SRS were investigated by daily video recording of the animals for 10 h per day and the recording of the electrographic activity twice a week for 8 h.
# To calculate the frequency of SRS in pilocarpine-exposed rats, the seizure severity and distinguished stage III (clonic seizures of facial muscles and anterior limbs) and stage IV-V seizures (rearing and falling) was measured. The frequency of stage III SRS per week in pilo-DZP and pilo-test compound rats was variable amongst the groups. It was low, constant in the pilo-DZP and pilo-TC60 (with early SRS onset) groups during the first 3 weeks and had disappeared during the 4th week in the pilo-DZP group. […] The frequency of more severe stage IV-V SRS was highest during the first week in most groups, except pilo-TC30 and TC60 with late seizure onset where the SRS frequency was constant over the whole 4 weeks in TC30 group and over the first two weeks in the pilo-TC60 group with late SRS onset in which no stage IV-V seizures where no seizures recorded after the second week.
# [7] = test system: rats subjected to li-pilo SE; test: Example 2: latency to and frequency of spontaneous seizures (video recording); assay type: in vivo, rat; settings: DZP group, 2.5 mg/kg i.m.; 2.5 mg/kg
# Protocol: The effects of DZP and the 4 doses of TC on epileptogenesis were investigated by daily video recording of the animals for 10 h per day. Video recording was performed for 4 weeks during which the occurrence of the first seizure was noted as well as the total number of seizures over the whole period. Animals were then taken off the video recording system and kept for 4 additional weeks in our animal facilities before they were sacrificed after a total period of 8 weeks of epilepsy.
# [8] = pilo-DZP (DZP 2.5 mg/kg i.m.), 14 days after li-pilo SE
smiles,measurement,setting,value
"CN1C(=O)CN=C(c2ccccc2)c2cc(Cl)ccc21 [DZP, diazepam, reference compound]","neurons surviving in entorhinal cortex, dorsal and ventral","[1]; DZP group, 14 days after SE",27-81%
same,"damage vs control, dorsal entorhinal cortex layer II","[1]; DZP rats, 14 days after SE",18%
same,"damage vs control, dorsal entorhinal cortex layers III-IV","[1]; DZP rats, 14 days after SE",24%
same,"damage vs control, ventral entorhinal cortex layer II","[1]; DZP rats, 14 days after SE",22% and 19%
same,"damage vs control, ventral entorhinal cortex layers III/IV","[1]; DZP rats, 14 days after SE",74% and 73%
same,"neuronal damage, amygdala central nucleus","[1]; DZP rats, 14 days after SE",no neuronal damage
same,"neuronal drop out vs control, CA1 pyramidal cell layer","[1]; DZP rats, 14 days after SE",85%
same,"neuronal drop out vs control, amygdala basolateral nucleus","[1]; DZP rats, 14 days after SE",73%
same,"neuronal drop out vs control, amygdala medial dorsal anterior nucleus","[1]; DZP rats, 14 days after SE",53%
same,"neuronal drop out vs control, thalamus central medial nucleus","[1]; DZP rats, 14 days after SE",34%
same,"neuronal drop out vs control, thalamus dorsolateral medial dorsal nucleus","[1]; DZP rats, 14 days after SE",40%
same,"neuronal drop out vs control, thalamus mediodorsal central nucleus","[1]; DZP rats, 14 days after SE",18%
same,"neuronal drop out vs control, thalamus mediodorsal lateral nucleus","[1]; DZP rats, 14 days after SE",24%
same,"neuronal loss vs control, CA3 region","[1]; DZP rats, 14 days after SE",40%
same,"neuronal loss vs control, amygdala medial ventral posterior nucleus","[1]; DZP rats, 14 days after SE",38%
same,"neuronal loss vs control, hilus of dentate gyrus","[1]; DZP rats, 14 days after SE",65% and 66%
same,"neuronal loss vs control, piriform cortex dorsal layer II","[1]; DZP rats, 14 days after SE",66%
same,"neuronal loss vs control, piriform cortex layer III","[1]; DZP rats, 14 days after SE",94%
same,"neuronal loss vs control, piriform cortex ventral layer II","[1]; DZP rats, 14 days after SE",89%
same,"neuronal loss vs control, thalamus mediodorsal nucleus","[1]; DZP rats, 14 days after SE",49%
same,"neuronal loss vs control, ventral lateral division of the dorsolateral nucleus","[1]; DZP rats, 14 days after SE",90%
same,number of neuronal cell bodies: Amygdala Basolateral,[1]; [8],12.8 ± 5.3
same,"number of neuronal cell bodies: Amygdala Medial, dorsal anterior",[1]; [8],40.0 ± 2.5
same,"number of neuronal cell bodies: Amygdala Medial, ventral posterior",[1]; [8],21.8 ± 2.4
same,"number of neuronal cell bodies: Cerebral cortex Entorhinal, layer II, dorsal",[1]; [8],23.5 ± 0.7
same,"number of neuronal cell bodies: Cerebral cortex Entorhinal, layer II, ventral",[1]; [8],21.7 ± 1.3
same,"number of neuronal cell bodies: Cerebral cortex Entorhinal, layer III/IV, dorsal",[1]; [8],22.3 ± 0.5
same,"number of neuronal cell bodies: Cerebral cortex Entorhinal, layer III/IV, ventral",[1]; [8],7.7 ± 2.3
same,"number of neuronal cell bodies: Cerebral cortex Piriform, layer II, dorsal",[1]; [8],12.6 ± 4.2
same,"number of neuronal cell bodies: Cerebral cortex Piriform, layer II, ventral",[1]; [8],3.6 ± 0.7
same,"number of neuronal cell bodies: Cerebral cortex Piriform, layer III",[1]; [8],1.2 ± 1.2
same,number of neuronal cell bodies: Hippocampus CA1 area,[1]; [8],10.9 ± 1.9
same,number of neuronal cell bodies: Hippocampus CA3 area,[1]; [8],31.3 ± 2.9
same,number of neuronal cell bodies: Hippocampus Hilus,[1]; [8],33.5 ± 3.0
same,number of neuronal cell bodies: Thalamus Central medial,[1]; [8],74.2 ± 7.4
same,"number of neuronal cell bodies: Thalamus Dorsolateral, medial, dorsal",[1]; [8],61 ± 6.3
same,"number of neuronal cell bodies: Thalamus Dorsolateral, ventral lateral",[1]; [8],9.7 ± 2.5
same,number of neuronal cell bodies: Thalamus Mediodorsal central,[1]; [8],26.3 ± 1.8
same,number of neuronal cell bodies: Thalamus Mediodorsal lateral,[1]; [8],19.6 ± 0.8
same,number of neuronal cell bodies: Thalamus Mediodorsal medial,[1]; [8],16.4 ± 1.9
same,"cell loss vs saline-saline, CA1 pyramidal cell layer",[2],70% and 75%
same,"cell loss vs saline-saline, CA3a",[2],54%
same,"cell loss vs saline-saline, CA3b",[2],31%
same,"cell loss vs saline-saline, hilus of dentate gyrus",[2],73%
same,"cell loss vs saline-saline, lateral thalamic nucleus",[2],91%
same,"cell loss vs saline-saline, mediodorsal thalamic nucleus",[2],56%
same,"cell loss vs saline-saline, piriform cortex layer II",[2],53%
same,"cell loss vs saline-saline, ventral entorhinal cortex layers III-IV",[2],44%
same,"cell loss, piriform cortex layers III-IV",[2],total
same,"damage vs saline-saline, dorsal entorhinal cortex layer II",[2],9%
same,"damage vs saline-saline, dorsal entorhinal cortex layers III-IV",[2],15%
same,"damage, ventral entorhinal cortex layer II",[2],totally preserved
same,mortality over the first 48 h after SE,[3]; group for cell counting at 14 days,36%
same,mortality over the first 48 h after SE,[3]; group for latency to SRS and late cell counting,7%
same,mortality during the first 48 h after SE,[4],23%
same,"Timm score in the upper blade of the dentate gyrus, mean",[5],2.8±0.8
same,frequency of stage IV-V SRS,"[6]; first week, pilo-DZP group",11.3 SRS per week
same,latency to SRS,[6]; pilo-DZP rats,18.2 ± 6.9 days
same,Latency to the first spontaneous seizure,[7],15.5 ± 2.3 days and 15.5 ± 2.34 days
